Experimental data reported in ChEMBL document CHEMBL1201862, “PubChem BioAssay data set” (2004).
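Growth conditions: 96-well plates. Treatment: test compound, 48 hours, 5 concentrations. Analysis: linear interpolation between bracketing concentrations; unreached endpoints set to highest concentration. GI50 = concentration required for 50% inhibition of growth.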 The source made the active and inactive calls. Cut-off read from the data, not from the text of the source: active = GI50 up to about 1.1 µM and inactive = higher.

What was measured:
Experiment in all cases: inhibition of tumour cell growth, NCI panel, 48 h
[1] = tested on: A498
[2] = tested on: BT-549
[3] = tested on: COLO 205
[4] = tested on: EKVX
[5] = tested on: HCT-15
[6] = tested on: HOP-62
[7] = tested on: MDA-MB-231
[8] = tested on: MDA-MB-435
[9] = tested on: PC-3
[10] = tested on: RXF 393
[11] = tested on: SF-295
[12] = tested on: SNB-19
[13] = tested on: T47D
[14] = tested on: UO-31

SMILES | GI50 [1] | GI50 [2] | GI50 [3] | GI50 [4] | GI50 [5] | GI50 [6] | GI50 [7] | GI50 [8] | GI50 [9] | GI50 [10] | GI50 [11] | GI50 [12] | GI50 [13] | GI50 [14]
CN(C)CCCNC(=O)c1cc(NC(=O)CCCn2c3ccccc3c3ccccc32)cn1C | 17.7 µM (inactive) | > 100 µM (inactive) | 21.9 µM (inactive) | 15.6 µM (inactive) | 45.7 µM | > 100 µM (inactive) | 21 µM (inactive) | 24.3 µM (inactive) | 20.7 µM (inactive) | 32.8 µM (inactive) | 25.9 µM (inactive) | 25 µM (inactive) | 19.1 µM (inactive) | 25.5 µM (inactive)
COC(=O)c1ccc2c(c1)S/C(=C/c1ccc3ccc4cccc5ccc1c3c45)S2 | 31.6 µM (inactive) | 35.8 µM (inactive) | > 100 µM (inactive) | > 100 µM (inactive) | 28.1 µM | 37.1 µM (inactive) | > 100 µM (inactive) | 26.6 µM (inactive) | 48.1 µM (inactive) | 50.4 µM (inactive) | 40.8 µM (inactive) | 50.6 µM (inactive) | > 100 µM (inactive) | > 100 µM (inactive)
N=C(N)c1ccc(/C=C/c2ccc(C(=N)N)cc2)cc1 | 14.9 µM (inactive) | > 100 µM (inactive) |  | 46.3 µM (inactive) | > 100 µM | 41.2 µM (inactive) | > 100 µM (inactive) | > 100 µM (inactive) | 64.9 µM (inactive) | > 100 µM (inactive) | 34.4 µM (inactive) | > 100 µM (inactive) | > 100 µM (inactive) | > 100 µM (inactive)
O=[N+]([O-])c1ccc(N/N=C(\c2ccccc2)c2ccccn2)nc1 | > 100 µM (inactive) | 15.5 µM (inactive) | < 0.0391 µM (active) | 0.171 µM (active) | 0.151 µM | 8.57 µM (inactive) | 1 µM (active) | 7.41 µM (inactive) | 0.92 µM (active) | 5.56 µM (inactive) | 5.32 µM (inactive) | 9.48 µM (inactive) | 0.0107 µM (active) | 0.817 µM (active)
CC(C)(C)c1ccc2c(c1)CNCCNCc1cc(C(C)(C)C)ccc1OCC1(CO2)COc2ccc(C(C)(C)C)cc2CNCCNCc2cc(C(C)(C)C)ccc2OC1 | 0.857 µM (active) | 1.71 µM (inactive) | 0.649 µM (active) | 1.27 µM (inactive) | 0.931 µM | 1.66 µM (inactive) | 0.394 µM (active) | 0.271 µM (active) | 1.58 µM (inactive) | 1.42 µM (inactive) | 0.968 µM (active) | 0.935 µM (active) | 1.91 µM (inactive) | 1.8 µM (inactive)
CCOC(=O)N1CCN(Cc2cc(=O)n3ccc(C)cc3n2)CC1 | > 100 µM (inactive) | > 100 µM (inactive) | > 100 µM (inactive) | > 100 µM (inactive) | > 100 µM | > 100 µM (inactive) | > 100 µM (inactive) | > 100 µM (inactive) | > 100 µM (inactive) | > 100 µM (inactive) | > 100 µM (inactive) | > 100 µM (inactive) | > 100 µM (inactive) | > 100 µM (inactive)
COc1ncc(C=C(C#N)C#N)c(OC)n1 | > 100 µM (inactive) | 33.7 µM (inactive) | 36 µM (inactive) | 79.8 µM (inactive) | 29.9 µM | 83.6 µM (inactive) | 41.5 µM (inactive) | 26 µM (inactive) | 39.2 µM (inactive) | > 100 µM (inactive) | 85.5 µM (inactive) | 52.6 µM (inactive) | > 100 µM (inactive) | 21.1 µM (inactive)
NNC(=O)c1ccccc1NC(=O)/C(=C/c1ccccc1)NC(=O)c1ccccc1 | > 100 µM (inactive) | 60.4 µM (inactive) | > 100 µM (inactive) | > 100 µM (inactive) | 46.7 µM | 49.1 µM (inactive) | 47.9 µM (inactive) | 54.3 µM (inactive) | > 100 µM (inactive) | > 100 µM (inactive) | > 100 µM (inactive) | 43 µM (inactive) | > 100 µM (inactive) | 65.3 µM (inactive)
COc1c(C)c(OC)c2c(c1O)[C@@H]1[C@@H]3Cc4c(OC)c(C)c(OC)c(O)c4[C@H](CNC(=O)c4ccc5ccccc5n4)N3[C@@H](C#N)[C@H](C2)N1C | 0.000629 µM (active) | 0.000377 µM (active) | 0.000891 µM (active) | 0.000232 µM (active) | 0.0101 µM | 0.00112 µM (active) | 0.00159 µM (active) | 0.00116 µM (active) | 0.00234 µM (active) | 0.00136 µM (active) | 0.0018 µM (active) | 0.00569 µM (active) | 0.000277 µM (active) | 0.00227 µM (active)
O=C(O)c1cccc(/N=N/c2c(S(=O)(=O)O)ccc3c2C(=O)c2ccccc2C3=O)c1O | > 100 µM (inactive) | > 100 µM (inactive) | > 100 µM (inactive) | > 100 µM (inactive) | > 100 µM | > 100 µM (inactive) | > 100 µM (inactive) | > 100 µM (inactive) | > 100 µM (inactive) | > 100 µM (inactive) | > 100 µM (inactive) | > 100 µM (inactive) | > 100 µM (inactive) | > 100 µM (inactive)
Cc1ccc(/C=C2\CCCC(CN3CCCCC3)C2=O)cc1 (centres undefined) | 13.4 µM (inactive) | 2.29 µM (inactive) | 1.82 µM (inactive) | 17.6 µM (inactive) | 2.14 µM | 20.3 µM (inactive) | 1.85 µM (inactive) | 1.82 µM (inactive) | 2.79 µM (inactive) | 1.56 µM (inactive) | 17.2 µM (inactive) | 15.2 µM (inactive) | 1.82 µM (inactive) | 1.84 µM (inactive)
Cc1cccc(-n2c(C)nc3ccc(NC4OC(CO)C(O)C(O)C4O)cc3c2=O)c1 (centres undefined) | > 100 µM (inactive) | > 100 µM (inactive) | > 100 µM (inactive) | > 100 µM (inactive) | > 100 µM | > 100 µM (inactive) | > 100 µM (inactive) | > 100 µM (inactive) | > 100 µM (inactive) | > 100 µM (inactive) | > 100 µM (inactive) | > 100 µM (inactive) | > 100 µM (inactive) | > 100 µM (inactive)
CN1CCCN2CCN(C)CCN(CC1)CC2 | > 100 µM (inactive) | > 100 µM (inactive) | > 100 µM (inactive) | > 100 µM (inactive) | > 100 µM | > 100 µM (inactive) | > 100 µM (inactive) | > 100 µM (inactive) | > 100 µM (inactive) | > 100 µM (inactive) | > 100 µM (inactive) | > 100 µM (inactive) | > 100 µM (inactive) | > 100 µM (inactive)
O=C1C=C(OCCCCl)C(=O)c2c(O)ccc(O)c21 | 2.13 µM (inactive) | 1.09 µM (active) | 0.245 µM (active) | 1.79 µM (inactive) | 0.422 µM | 1.42 µM (inactive) | 1.74 µM (inactive) | 0.206 µM (active) | 1.93 µM (inactive) | 1.69 µM (inactive) | 0.82 µM (active) | 1.8 µM (inactive) | 2.19 µM (inactive) | 1.18 µM (inactive)
CCOC(=O)C(C(N)=O)C1=Nc2cc([N+](=O)[O-])ccc2N/C1=C\C(=O)c1ccccc1 (centres undefined) | 16.6 µM (inactive) | 21.7 µM (inactive) | 17.9 µM (inactive) | 20.6 µM (inactive) | 12.6 µM | 10.9 µM (inactive) | 13.3 µM (inactive) | 15.8 µM (inactive) | 15.5 µM (inactive) | 17.7 µM (inactive) | 16.7 µM (inactive) | 18.5 µM (inactive) | 26 µM (inactive) | 19.5 µM (inactive)
C1=C2C3=[N+](CCCC3)CC2Cc2sccc21 (centres undefined) | 47.6 µM (inactive) | 82.6 µM (inactive) | 67.1 µM (inactive) | 42.7 µM (inactive) | > 100 µM | 81.7 µM (inactive) | > 100 µM (inactive) | > 100 µM (inactive) | 45.6 µM (inactive) | > 100 µM (inactive) | 66.5 µM (inactive) | 86.9 µM (inactive) | 74.8 µM (inactive) | > 100 µM (inactive)
COc1nc(N)nc2c1ncn2C1CC(O)C(CO)O1 (centres undefined) | > 100 µM (inactive) | > 100 µM (inactive) | > 100 µM (inactive) | > 100 µM (inactive) | > 100 µM | > 100 µM (inactive) | > 100 µM (inactive) | > 100 µM (inactive) | > 100 µM (inactive) | > 100 µM (inactive) | > 100 µM (inactive) | > 100 µM (inactive) | > 100 µM (inactive) | > 100 µM (inactive)
O=S(=O)(O)c1cccc2c(/N=N/c3c(O)ccc4ccccc34)cccc12 | > 100 µM (inactive) | > 100 µM (inactive) | > 100 µM (inactive) | > 100 µM (inactive) | > 100 µM | > 100 µM (inactive) | > 100 µM (inactive) | > 100 µM (inactive) | > 100 µM (inactive) | > 100 µM (inactive) | > 100 µM (inactive) | > 100 µM (inactive) | > 100 µM (inactive) | > 100 µM (inactive)
Cc1cn(C2CC(O)C(COP(=O)(O)OC3CC(n4c[n+]([BH2-]C#N)c5c(=O)[nH]c(N)nc54)OC3CO)O2)c(=O)[nH]c1=O (centres undefined) | > 100 µM (inactive) | > 100 µM (inactive) | > 100 µM (inactive) | > 100 µM (inactive) | > 100 µM | > 100 µM (inactive) | > 100 µM (inactive) | > 100 µM (inactive) | > 100 µM (inactive) | > 100 µM (inactive) | > 100 µM (inactive) | > 100 µM (inactive) | > 100 µM (inactive) | > 100 µM (inactive)
c1ccc(-c2nc(-c3ccccc3)c(-c3ccccc3)[nH]2)cc1 | > 100 µM (inactive) | > 100 µM (inactive) | > 100 µM (inactive) | > 83.6 µM (inactive) | > 100 µM | > 85.5 µM (inactive) | > 72.6 µM (inactive) | > 100 µM (inactive) | > 100 µM (inactive) | > 100 µM (inactive) | > 100 µM (inactive) | > 100 µM (inactive) | 42.3 µM (inactive) | > 100 µM (inactive)
